Values joined by “and” are separate entries in the source; they are usually repeats but may differ in a detail not shown here. Identical values can stand only once. Like-named read-outs stand apart in the source and are kept apart here.
How the values were obtained:
SARS-CoV-2 WA1/2020 [1] = format: in vivo, ferret (Mustela putorius furo); conditions: for Transform of Nasal lavage titer, Mean 2 (treated group) / Transform of Nasal lavage titer, Mean Diff. (Vehicle vs. treated): Fig 3b; for Transform of Nasal Lavage RNA copies, Mean 2 (treated group) / Transform of Nasal Lavage RNA copies, Mean Diff. (Vehicle vs. treated): Fig 3f, 5mg/kg b.i.d.
[2] = format: in vivo, ferret (Mustela putorius furo); design: Temperature, Mean Diff. (Vehicle - treated): unit not given here; conditions: for Bodyweight, Mean 2 (treated group) / Bodyweight, Mean Diff. (Vehicle vs. treated): Fig 3e; for Bodyweight, Mean 2 (treated group) / Bodyweight, Mean Diff. (Vehicle vs. treated) / Temperature, Mean 2 (treated group) / Temperature, Mean Diff. (Vehicle vs. treated): 5 mg/kg, b.i.d.; for Temperature, Mean 2 (treated group) / Temperature, Mean Diff. (Vehicle vs. treated): Fig 3d; for Bodyweight, Mean 2 (treated group mean) / Bodyweight, Mean Diff. (Vehicle - treated): Fig 2e; for Bodyweight, Mean 2 (treated group mean) / Bodyweight, Mean Diff. (Vehicle - treated) / Temperature, Mean 2 (treated group mean) / Temperature, Mean Diff. (Vehicle - treated): 20 mg kg-1 b.i.d.; for Bodyweight, Mean 2 (treated group mean) / Temperature, Mean 2 (treated group mean): N 4; for Bodyweight, Mean Diff. (Vehicle - treated) / Temperature, Mean Diff. (Vehicle - treated): Šídák's multiple comparisons test; for Temperature, Mean 2 (treated group mean) / Temperature, Mean Diff. (Vehicle - treated): Fig 2d
SARS-CoV-2 WA1/2020 [3] = format: in vivo, ferret (Mustela putorius furo); conditions: Fig 2g, 20 mg kg-1 b.i.d.; for Transform of Nasal lavage RNA copies/uL, Mean 2 (treated group mean): N 4; for Transform of Nasal lavage RNA copies/uL, Mean Diff. (Vehicle - treated): Šídák's multiple comparisons test
[4] = Single-dose plasma pharmacokinetics in ferrets; conditions: ferret plasma, analyte 441524 after IV '524, 20 mg/kg, 20 mg/kg; for AUC(0-t) / clearance / Cmax: plasma, iv; for AUC(0-t): AUClast; for clearance: Cl_obs

## CC(C)C(=O)OC[C@H]1O[C@@H](n2ccc(NO)nc2=O)[C@H](O)[C@@H]1O [EIDD-2801/molnupiravir, reference compound]
SARS-CoV-2 WA1/2020 [1]; Day 0, 5 mg/kg, b.i.d.
  Transform of Nasal lavage titer, Mean 2 (treated group): 0.699
  Transform of Nasal lavage titer, Mean Diff. (Vehicle vs. treated): 0
SARS-CoV-2 WA1/2020 [1]; Day 0.5, 5 mg/kg, b.i.d.
  Transform of Nasal lavage titer, Mean 2 (treated group): 2.389
  Transform of Nasal lavage titer, Mean Diff. (Vehicle vs. treated): 0.206
SARS-CoV-2 WA1/2020 [1]; Day 1, 5 mg/kg, b.i.d.
  Transform of Nasal lavage titer, Mean 2 (treated group): 2.25
  Transform of Nasal lavage titer, Mean Diff. (Vehicle vs. treated): 1.457
SARS-CoV-2 WA1/2020 [1]; Day 1.5, 5 mg/kg, b.i.d.
  Transform of Nasal lavage titer, Mean 2 (treated group): 2.025
  Transform of Nasal lavage titer, Mean Diff. (Vehicle vs. treated): 2.631
SARS-CoV-2 WA1/2020 [1]; Day 2, 5 mg/kg, b.i.d.
  Transform of Nasal lavage titer, Mean 2 (treated group): 1.683
  Transform of Nasal lavage titer, Mean Diff. (Vehicle vs. treated): 2.587
SARS-CoV-2 WA1/2020 [1]; Day 2.5, 5 mg/kg, b.i.d.
  Transform of Nasal lavage titer, Mean 2 (treated group): 2.004
  Transform of Nasal lavage titer, Mean Diff. (Vehicle vs. treated): 2.196
SARS-CoV-2 WA1/2020 [1]; Day 3, 5 mg/kg, b.i.d.
  Transform of Nasal lavage titer, Mean 2 (treated group): 1.551
  Transform of Nasal lavage titer, Mean Diff. (Vehicle vs. treated): 2.25
SARS-CoV-2 WA1/2020 [1]; Day 3.5, 5 mg/kg, b.i.d.
  Transform of Nasal lavage titer, Mean 2 (treated group): 1.802
  Transform of Nasal lavage titer, Mean Diff. (Vehicle vs. treated): 2.074
SARS-CoV-2 WA1/2020 [1]; Day 4, 5 mg/kg, b.i.d.
  Transform of Nasal lavage titer, Mean 2 (treated group): 1.119
  Transform of Nasal lavage titer, Mean Diff. (Vehicle vs. treated): 2.869
SARS-CoV-2 WA1/2020 [1]; Fig 3c, 5 mg/kg, b.i.d.
  Transform of Nasal Turbinate titer, Mean 2 (treated group): 2.801
  Transform of Nasal Turbinate titer, Mean Diff. (Vehicle vs. treated): 3.122
SARS-CoV-2 WA1/2020 [1]; Row 1 (time)
  Transform of Nasal Lavage RNA copies, Mean 2 (treated group): 0
  Transform of Nasal Lavage RNA copies, Mean Diff. (Vehicle vs. treated): 0
SARS-CoV-2 WA1/2020 [1]; Row 2 (time)
  Transform of Nasal Lavage RNA copies, Mean 2 (treated group): 4.936
  Transform of Nasal Lavage RNA copies, Mean Diff. (Vehicle vs. treated): 0.6755
SARS-CoV-2 WA1/2020 [1]; Row 3 (time)
  Transform of Nasal Lavage RNA copies, Mean 2 (treated group): 4.762
  Transform of Nasal Lavage RNA copies, Mean Diff. (Vehicle vs. treated): 1.379
SARS-CoV-2 WA1/2020 [1]; Row 4 (time)
  Transform of Nasal Lavage RNA copies, Mean 2 (treated group): 4.913
  Transform of Nasal Lavage RNA copies, Mean Diff. (Vehicle vs. treated): 0.7124
SARS-CoV-2 WA1/2020 [1]; Row 5 (time)
  Transform of Nasal Lavage RNA copies, Mean 2 (treated group): 4.419
  Transform of Nasal Lavage RNA copies, Mean Diff. (Vehicle vs. treated): 1.314
SARS-CoV-2 WA1/2020 [1]; in vivo
  viral RNA copies in nasal lavages and turbinates vs vehicle: statistically significant mean reduction
  virus burden in the turbinates: approached the limit of detection
  virus shedding in nasal lavages: near-detection level
[2]; Row 1 (time)
  Bodyweight, Mean 2 (treated group): 100
  Bodyweight, Mean Diff. (Vehicle vs. treated): 0
  Temperature, Mean 2 (treated group): 38.55
  Temperature, Mean Diff. (Vehicle vs. treated): 0.6
[2]; Row 2 (time)
  Bodyweight, Mean 2 (treated group): 104
  Bodyweight, Mean Diff. (Vehicle vs. treated): -3.257
  Temperature, Mean 2 (treated group): 38.7
  Temperature, Mean Diff. (Vehicle vs. treated): -0.025
[2]; Row 3 (time)
  Bodyweight, Mean 2 (treated group): 103.5
  Bodyweight, Mean Diff. (Vehicle vs. treated): -2.179
  Temperature, Mean 2 (treated group): 38.58
  Temperature, Mean Diff. (Vehicle vs. treated): 0.1
[2]; Row 4 (time)
  Bodyweight, Mean 2 (treated group): 103.9
  Bodyweight, Mean Diff. (Vehicle vs. treated): -1.728
  Temperature, Mean 2 (treated group): 38.6
  Temperature, Mean Diff. (Vehicle vs. treated): 0.05
[2]; Row 5 (time)
  Bodyweight, Mean 2 (treated group): 105.6
  Bodyweight, Mean Diff. (Vehicle vs. treated): -3.149
  Temperature, Mean 2 (treated group): 38.53
  Temperature, Mean Diff. (Vehicle vs. treated): 0.05
[2]; in vivo
  Body temperature (Fig 3D): 39.3 and 38.7 and 38.2 and 38.6 and 38.9 and 38.4 and 37.8

## CC(C)C(=O)OCC1OC(C#N)(c2ccc3c(N)ncnn23)C(OC(=O)C(C)C)C1OC(=O)C(C)C (stereo not shown) [GS-62-1763]
SARS-CoV-2 WA1/2020 [3]; Row 1 (time)
  Transform of Nasal lavage RNA copies/uL, Mean 2 (treated group mean): 0
  Transform of Nasal lavage RNA copies/uL, Mean Diff. (Vehicle - treated): 0
SARS-CoV-2 WA1/2020 [3]; Row 2 (time)
  Transform of Nasal lavage RNA copies/uL, Mean 2 (treated group mean): 3.525
  Transform of Nasal lavage RNA copies/uL, Mean Diff. (Vehicle - treated): 1.479
SARS-CoV-2 WA1/2020 [3]; Row 3 (time)
  Transform of Nasal lavage RNA copies/uL, Mean 2 (treated group mean): 3.436
  Transform of Nasal lavage RNA copies/uL, Mean Diff. (Vehicle - treated): 2.713
SARS-CoV-2 WA1/2020 [3]; Row 4 (time)
  Transform of Nasal lavage RNA copies/uL, Mean 2 (treated group mean): 3.353
  Transform of Nasal lavage RNA copies/uL, Mean Diff. (Vehicle - treated): 2.648
SARS-CoV-2 WA1/2020 [3]; Row 5 (time)
  Transform of Nasal lavage RNA copies/uL, Mean 2 (treated group mean): 3.502
  Transform of Nasal lavage RNA copies/uL, Mean Diff. (Vehicle - treated): 2.475
[2]; Row 1 (time)
  Bodyweight, Mean 2 (treated group mean): 100
  Bodyweight, Mean Diff. (Vehicle - treated): 0
  Temperature, Mean 2 (treated group mean): 38.58
  Temperature, Mean Diff. (Vehicle - treated): -0.25
[2]; Row 2 (time)
  Bodyweight, Mean 2 (treated group mean): 102.1
  Bodyweight, Mean Diff. (Vehicle - treated): -0.8462
  Temperature, Mean 2 (treated group mean): 38.45
  Temperature, Mean Diff. (Vehicle - treated): 0.275
[2]; Row 3 (time)
  Bodyweight, Mean 2 (treated group mean): 104.7
  Bodyweight, Mean Diff. (Vehicle - treated): -2.64
  Temperature, Mean 2 (treated group mean): 38.68
  Temperature, Mean Diff. (Vehicle - treated): 0.675
[2]; Row 4 (time)
  Bodyweight, Mean 2 (treated group mean): 105.7
  Bodyweight, Mean Diff. (Vehicle - treated): -3.357
  Temperature, Mean 2 (treated group mean): 38.4
  Temperature, Mean Diff. (Vehicle - treated): 0.85
[2]; Row 5 (time)
  Bodyweight, Mean 2 (treated group mean): 105.5
  Bodyweight, Mean Diff. (Vehicle - treated): -2.899
  Temperature, Mean 2 (treated group mean): 38.33
  Temperature, Mean Diff. (Vehicle - treated): 0.6

## N#CC1(c2ccc3c(N)ncnn23)OC(CO)C(O)C1O (stereo not shown) [compound 441524]
[4]; individual animals F0201-F0203
  Cl_obs: 12 mL/min/kg and 17.3 mL/min/kg
  AUC(0-t): 82 µM·h
  clearance: 13.9 mL/min/kg
  Cmax: 62.4 µM
[4]; Mean
  AUC(0-t): 81.1 µM·h
  clearance: 14.4 mL/min/kg
  Cmax: 54.2 µM
